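Protocol summary: plate cells (96-well), add compound at 5 concentrations, incubate 48 h, interpolate endpoints linearly. GI50: concentration for 50% inhibition of growth. The concentration for full growth arrest is given as TGI.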
Assays:
Test in all cases: NCI tumour cell line growth inhibition, 48 h
MDA-MB-435 = test system: MDA-MB-435
U251 CNS = test system: U251 CNS
UO-31 renal = test system: UO-31 renal
HL-60(TB) leukemia = test system: HL-60(TB) leukemia
RXF 393 renal = test system: RXF 393 renal
SF-539 CNS = test system: SF-539 CNS
A498 renal = test system: A498 renal
SF-268 CNS = test system: SF-268 CNS
T-47D breast = test system: T-47D breast
SF-295 CNS = test system: SF-295 CNS
SK-OV-3 ovarian = test system: SK-OV-3 ovarian
NCI-H23 lung = test system: NCI-H23 lung
OVCAR-4 ovarian = test system: OVCAR-4 ovarian
SN12C renal = test system: SN12C renal
LOX IMVI melanoma = test system: LOX IMVI melanoma
OVCAR-5 ovarian = test system: OVCAR-5 ovarian
IGROV1 ovarian = test system: IGROV1 ovarian
CCRF-CEM leukemia = test system: CCRF-CEM leukemia
BT-549 breast = test system: BT-549 breast
ACHN renal = test system: ACHN renal
NCI-H460 lung = test system: NCI-H460 lung
KM12 colon = test system: KM12 colon
SNB-75 CNS = test system: SNB-75 CNS
MDA-MB-231 breast = test system: MDA-MB-231 breast
NCI/ADR-RES ovarian = test system: NCI/ADR-RES ovarian
786-0 renal = test system: 786-0 renal
SK-MEL-28 melanoma = test system: SK-MEL-28 melanoma
UACC-62 melanoma = test system: UACC-62 melanoma
HCC-2998 colon = test system: HCC-2998 colon
RPMI-8226 leukemia = test system: RPMI-8226 leukemia

In the case of `CN(C)c1ncnc2c1nnn2C1OC(CO)C(O)C1O` (stereo not drawn), the TGI (MDA-MB-435) is reported as greater than 100000 nM, the GI50 (U251 CNS) is reported as 1600 nM and the TGI (U251 CNS) is reported as greater than 100000 nM. It also gave a GI50 (UO-31 renal) of 400 nM, a TGI (UO-31 renal) greater than 100000 nM and a GI50 (HL-60(TB) leukemia) of 239 nM. It also gave a TGI (HL-60(TB) leukemia) greater than 100000 nM, a GI50 (RXF 393 renal) of 386 nM and a TGI (RXF 393 renal) greater than 100000 nM. It also gave a GI50 (SF-539 CNS) of 503 nM, a TGI (SF-539 CNS) greater than 90600 nM and a GI50 (A498 renal) of 442 nM. For the same molecule, the TGI (A498 renal) was greater than 100000 nM, the GI50 (SF-268 CNS) was 479 nM and the TGI (SF-268 CNS) was greater than 100000 nM. The GI50 (T-47D breast) was 141 nM, the TGI (T-47D breast) was 2810 nM and the GI50 (SF-295 CNS) was 221 nM. For the same molecule, the TGI (SF-295 CNS) was greater than 58300 nM, the GI50 (SK-OV-3 ovarian) was 41.3 nM and the TGI (SK-OV-3 ovarian) was 22500 nM. The GI50 (NCI-H23 lung) was 399 nM, the TGI (NCI-H23 lung) was greater than 63200 nM and the GI50 (OVCAR-4 ovarian) was 55.8 nM. The TGI (OVCAR-4 ovarian) was greater than 100000 nM, the GI50 (SN12C renal) was 479 nM and the TGI (SN12C renal) was greater than 100000 nM. It also gave a GI50 (LOX IMVI melanoma) of 156 nM, a TGI (LOX IMVI melanoma) greater than 100000 nM and a GI50 (OVCAR-5 ovarian) of 2970 nM. It also gave a TGI (OVCAR-5 ovarian) greater than 100000 nM, a GI50 (IGROV1 ovarian) of 361 nM and a TGI (IGROV1 ovarian) of 15900 nM. The GI50 (CCRF-CEM leukemia) was 66.2 nM, the TGI (CCRF-CEM leukemia) was greater than 100000 nM and the GI50 (BT-549 breast) was 1090 nM. For the same molecule, the TGI (BT-549 breast) was greater than 100000 nM, the GI50 (ACHN renal) was 141 nM and the TGI (ACHN renal) was greater than 54000 nM. The GI50 (NCI-H460 lung) was 247 nM, the TGI (NCI-H460 lung) was greater than 100000 nM and the GI50 (KM12 colon) was 1070 nM. The TGI (KM12 colon) was 32800 nM, the GI50 (SNB-75 CNS) was 106 nM and the TGI (SNB-75 CNS) was greater than 100000 nM. The GI50 (MDA-MB-231 breast) was 524 nM, the TGI (MDA-MB-231 breast) was greater than 100000 nM and the GI50 (NCI/ADR-RES ovarian) was 233 nM. The TGI (NCI/ADR-RES ovarian) was greater than 100000 nM, the GI50 (786-0 renal) was 226 nM and the TGI (786-0 renal) was greater than 100000 nM. For the same molecule, the GI50 (SK-MEL-28 melanoma) was 404 nM, the TGI (SK-MEL-28 melanoma) was greater than 85200 nM and the GI50 (UACC-62 melanoma) was 246 nM. It also gave a TGI (UACC-62 melanoma) of 1550 nM, a GI50 (HCC-2998 colon) of 325 nM and a GI50 (RPMI-8226 leukemia) of 160 nM. For the same molecule, the TGI (RPMI-8226 leukemia) was 1100 nM.

— PubChem BioAssay (NCI)
